Data from patent US6916921B2, “Steroid compounds, use of these compounds for the preparation of meiosis-regulating medicaments and method for the preparation of these compounds” (Schering AG, priority 2001, dated 2005).

Columns and labels:
[1] = tested on: rat oocytes; conditions: micromolar concentrations; rat CEO and DO arrested by IBMX; cited from earlier work
[2] = tested on: mouse preantral follicles; test: Mouse follicular culture system: activation of oocyte maturation; format: cell-based; conditions: for Activation [%] GVB / Follicles [n] GV / Follicles [n] GVB: added day 2 and 3, read at day 4
Protocol: Testing of Meiosis-Activating Substances in the Mouse Follicular Culture System
Follicles were obtained from 19-21 day-old immature female mice (C57BI/6J×CBA/J), that were kept under controlled lighting and temperature.
Collection of Serum and Culture of Follicles
Animals were anesthetized with ether, and blood was collected by means of eye extraction. After clotting, blood was centrifuged for 15 min at 4000×g, and serum was collected and stored at −20° C. until use. Ovaries were removed and placed in Leibovitz L-15 medium (Gibco Cat. No. 41300) supplemented with 1 mmol glutamine l^−1, 3 mg BSA ml^−1, 5 μg human transferrin ml^−1 (without iron), 5 μg insulin ml^−1 (culture-grade chemicals, Sigma, St. Louis, Mo.) at 37 °C.
Preantral follicles with a diameter of 170-190 μm were isolated mechanically with two 27-gauge needles attached to 1 ml syringe. They were placed and washed thereafter (3 times) in 4-well culture plates (Nunclon, Denmark) in α-minimum essential medium (α-MEM; Gibco Cat. No. 11900) supplemented with 2 mmol glutamine l^−1, 10 μg transferrin ml^−1 and 10 μg insulin ml and with 3 mg BSA ml^−1.
Follicles of 170-190 μm with normal morphological appearence, i.e. a central spherical oocyte, high density of granulosa cells, and a theca layer enclosing the entire follicle, were selected and individually cultured in 96-well culture plate (Nunclon, Denmark) inserts with 40 μl α-MEM culture medium supplemented with 50 μl immature mouse serum ml^−1, 5 μg insulin ml^−1, 2 mmol glutamine l^−1, 10 μg human transferrin ml^−1 and 0.2 IU FSH (Gonal F, Serono, Solna, Sweden). Without any oil cover follicles were cultured in a humidified incubator gassed with 5% CO2 in air at 37° C.
Start of culture was defined as day 0. Culture medium was exchanged every other day. The diameter of the follicles was measured each day using ×100 magnification and a calibrated micrometer. In addition, the survival rate of the follicles was checked by evaluation of degeneration (darkening of the follicle) and bursting (loss of the oocyte). The culture time was 4 days.
At day 2 and day 3 of culture test compound or vehicle at a volume of 1.72 μl was added to the culture medium. Test compounds were dissolved in ethanol (vehicle).
(§1) Oocytes arrested in meiosis are characterized by an intact nucleus with a prominent nucleolus, known as germinal vesicle (GV). Upon reinitiation of meiosis the nucleolus and the nuclear envelope disappear and this is characterized by a breakdown of the GV, which then is called germinal vesicle breakdown (GVB).
At day 4, by the end of the culture period, follicles were checked for resumption of meiosis. The number of follicles having oocytes with germinal vesicle (GV) or germinal vesicle breakdown (GVB) was counted using a stereo microscope or an inverted microscope with differential interference contrast equipment. The percentage of follicles with GVB per total number of follicles was calculated in the test cultures and compared to the vehicle control culture.

[3] = tested on: cumulus enclosed mouse oocytes; test: Mouse oocyte assay: activation of meiosis in cumulus enclosed oocytes in Hx-medium; format: cell-based; conditions: CEO in Hx-medium, 22 hours culture
Protocol: Testing of Meiosis-Activating Substances in the Mouse Oocyte Assay
Oocytes were obtained from immature female mice (C57BI/6J×DBA/2J F1-hybrids, Bomholtgaard, Denmark) weighing 13-16 grams, that were kept under controlled lighting and temperature. The mice received an intra-peritoneal injection of 0.2 ml gonadotropins (containing 10 IU PMSG, pregnant mare serum gonadotropin, Sigma Cat. No. G-4877) and 48 hours later the animals were killed by cervical dislocation.
Collection and Culture of Oocytes
The ovaries were dissected out and the oocytes were isolated in Hx-medium (see below) under a stereo microscope by manual rupture of the follicles using a pair of 27 gauge needles. Spherical, cumulus enclosed oocytes (CEO) displaying an intact germinal vesicle (GV) were placed in α-minimum essential medium (α-MEM without ribonucleosides, Gibco BRL, Cat. No. 22561) supplemented with 3 mM hypoxanthine (Sigma Cat. No. H-9377), 8 mg/ml Human Serum Albumin (HSA, State Serum Institute, Denmark), 0,23 mM pyruvate (Sigma, Cat. No. S-8636), 2 mM glutamine (Flow Cat. No. 16-801), 100 IU/ml penicillin and 100 μg/ml streptomycin (Flow Cat No. 16-700). This medium was designated Hx-medium.
The oocytes were rinsed three times in Hx-medium and cultured in 4-well multidishes (Nunclon, Denmark) in which each well contained 0.4 ml of Hx-medium and approx. 25 oocytes. One control (i.e. approx. 25 oocytes cultured in Hx-medium with no addition of test compound) was always run simultaneously with the test cultures, which were made with different concentrations of the compounds to be tested. The cultures were performed at 37° C. and 100% humidity with 5% CO2 in air. The culture time was 22 hours.
as §1, with “than” for “then”, “(GVB). Some hours later the oocyte complete a reductional division and elicit the first so called polar body (PB).” for “(GVB).”
By the end of the culture period, the number of oocytes with germinal vesicle (GV) or germinal vesicle breakdown (GVB) and those with polar body (PB) was counted using a stereo microscope or an inverted microscope with differential interference contrast equipment. The percentage of oocytes with GVB per total number of oocytes and the percentage of oocytes with PB per total number of oocytes was calculated in the test cultures and compared to the control culture.

For CC(C)=CCC[C@@H](C)[C@H]1CC=C2C3=C(CC[C@@]21C)[C@@]1(C)CC[C@H](O)C(C)(C)[C@@H]1CC3 [FF-MAS, 4,4-dimethyl-5α-cholesta-8,14,24-trien-3β-ol, reference compound], the resumption of meiosis [1] is given as “able to induce resumption of meiosis in a dose-dependent manner”, the “Activation [%] GVB” value ([2]; 10 μM) is given as 0% and the “Follicles [n] GV” value ([2]; 10 μM) is given as 9 n. The “Follicles [n] GVB” value ([2]; 10 μM) was 0 n, the “induction of maturation / activation of meiosis in a follicle culture system” value ([2]; follicle culture system) was “not able to induce maturation” and the “Activation [%] GVB + PB” value ([3]; 10 μM) was 46%. For the same compound, the “Oocytes [n] GV” value ([3]; 10 μM) was 13 n, the “Oocytes [n] GVB” value ([3]; 10 μM) was 6 n and the “Oocytes [n] PB” value ([3]; 10 μM) was 5 n.

In the case of C[C@H](CN1CCCCC1)[C@H]1CC=C2C3=C(CC[C@@]21C)[C@@]1(C)CC[C@H](O)C(C)(C)[C@@H]1CC3 [Example 1, (20S)-20-[(piperidin-1-yl)methyl]-4,4-dimethyl-5α-pregna-8,14-dien-3β-ol], the “Activation [%] GVB” value ([2]; 1 μM) is reported as 78%, the “Follicles [n] GV” value ([2]; 1 μM) is reported as 2 n and the “Follicles [n] GVB” value ([2]; 1 μM) is reported as 7 n. The “Activation [%] GVB” value ([2]; 3 μM) was 100%, the “Follicles [n] GV” value ([2]; 3 μM) was 0 n and the “Follicles [n] GVB” value ([2]; 3 μM) was 9 n. The “Activation [%] GVB” value ([2]; 10 μM) was 100%, the “Follicles [n] GV” value ([2]; 10 μM) was 0 n and the “Follicles [n] GVB” value ([2]; 10 μM) was 8 n. For the same compound, the “Activation [%] GVB + PB” value ([3]; 0,1 μM) was 39%, the “Oocytes [n] GV” value ([3]; 0,1 μM) was 14 n and the “Oocytes [n] GVB” value ([3]; 0,1 μM) was 7 n. For the same compound, the “Oocytes [n] PB” value ([3]; 0,1 μM) was 2 n, the “Activation [%] GVB + PB” value ([3]; 1 μM) was 75% and the “Oocytes [n] GV” value ([3]; 1 μM) was 6 n. The “Oocytes [n] GVB” value ([3]; 1 μM) was 12 n, the “Oocytes [n] PB” value ([3]; 1 μM) was 6 n and the “Activation [%] GVB + PB” value ([3]; 10 μM) was 95%. For the same compound, the “Oocytes [n] GV” value ([3]; 10 μM) was 1 n, the “Oocytes [n] GVB” value ([3]; 10 μM) was 14 n and the “Oocytes [n] PB” value ([3]; 10 μM) was 7 n.
